Columns and labels:
Type in all cases: biochemical
[1] = target: T1, CDK1:Cyclin-B (Homo sapiens, UniProt P06493); assay: CDK1 Screening Assay; conditions: 10 μM ATP, biotinylated histone-H1 peptide substrate, 33P-γ-ATP FlashPlate; read-out: Kinase IC50 CDK1
T1 construct: purchased New England Biolabs, Beverly, Mass; 6020; host or cells: insect cells
Method: (§1) A kinase reaction mixture was prepared containing 50 mM Tris.HCl pH=8, 10 mM MgCl2, 0.1 mM Na3PO4, 1 mM DTT, 10 μM ATP, 0.025 μM biotinylated histone-H1 peptide substrate and 0.2 μCuries per well ^33P-γ-ATP (2000-3000 Ci/mmol). 70 μL of the kinase reaction mixture was dispensed into the well of a streptavidin coated FlashPlate™ (Cat. # SMP103, NEN, Boston, Mass.). Then 1 μL of test compound stock in 100% DMSO was added to the wells resulting in a final concentration of 1% DMSO in the reaction well with a 100 μL final reaction well volume.
(§2) The CDK1:Cyclin-B protein was diluted in 50 mM Tris.HCl pH=8.0, 0.1% BSA at a concentration of 1 ng per μL and 30 μL (30 ng enzyme per test well) was added to each well to initiate the reaction. The reaction was incubated for one hour at 30° C. At the end of the one hour incubation, the reaction was terminated by aspirating the mixture from the plate and washing the wells twice with PBS containing 100 mM EDTA. The histone-H1 biotinylated peptide substrate became immobilized on the Flashplate™ and the incorporation of ^33P-γ-ATP was measured by reading the plate on a scintillation counter. Inhibition of the enzymatic activity of CDK1 was measured by observing a reduced amount of ^33P-γ-ATP incorporated into the immobilized peptide.
The CDK1 kinase used was isolated from insect cells expressing both the human CDK1 catalytic subunit and its positive regulatory subunit cyclin B (New England Biolabs, Beverly, Mass., Cat. # 6020).
(§3) An IC50 listed as >0.1, >1, >10 or >100 means no observed 50% inhibition at the indicated test concentration. […] ND means the compound was not tested in the assay specified.

[2] = target: T2, CDK2:Cyclin A (Homo sapiens, UniProt P24941); assay: CDK2 Screening Assay; conditions: 10 μM ATP, biotinylated histone-H1 peptide substrate, 33P-γ-ATP FlashPlate; read-out: Kinase IC50 CDK2
T2 construct: purchased Upstate Biotech, Lake Placid, N.Y
Method: as §1
as §2, with “CDK2:Cyclin A” for “CDK1:Cyclin-B”, “CDK2” for “CDK1”
The CDK2 kinase used was complexed with cyclin A and is commercially available (Upstate Biotech, Lake Placid, N.Y.).
as §3

[3] = target: VEGF-R2 kinase domain (Rattus norvegicus, UniProt O08775); assay: VEGF-R2 Screening Assay; conditions: 10 μM ATP, biotinylated PLC1 peptide substrate, 33P-γ-ATP FlashPlate; read-out: Kinase IC50 VEGFR
Method: as §1, with “biotinylated” for “biotinylated histone-H1”, “0.8” for “0.2”
The soluble rat tyrosine kinase containing an N-terminal 6×HIS tag was diluted in 50 mM Tris.HCl pH=8.0, 0.1% BSA at a concentration of 5 ng per μL and 30 μL (150 ng enzyme per test well) was added to each well to initiate the reaction. The reaction was incubated for one hour at 30° C. At the end of the one hour incubation, the reaction was terminated by aspirating the reaction mixture from the plate and washing the wells twice with PBS containing 100 mM EDTA. The PLC1 biotinylated peptide substrate became immobilized on the Flashplate™ and the incorporation of ^33P-γ-ATP was measured by reading the plate on a scintillation counter. Inhibition of the enzymatic activity of the VEGF-R was measured by observing a reduced amount of ^33P-γ-ATP incorporated into the immobilized peptide.
The VEGF-R kinase assay was carried out using the CDK kinase assay procedure except that the enzyme was replaced with the VEGF-R2 fusion protein containing a polyhistidine tag at the N-terminus followed by amino acids 786-1343 of the rat VEGF-R2 kinase domain (GenBank Accession #U93306).
as §3

VEGF-R2 kinase domain, sequence (O08775 786-1343): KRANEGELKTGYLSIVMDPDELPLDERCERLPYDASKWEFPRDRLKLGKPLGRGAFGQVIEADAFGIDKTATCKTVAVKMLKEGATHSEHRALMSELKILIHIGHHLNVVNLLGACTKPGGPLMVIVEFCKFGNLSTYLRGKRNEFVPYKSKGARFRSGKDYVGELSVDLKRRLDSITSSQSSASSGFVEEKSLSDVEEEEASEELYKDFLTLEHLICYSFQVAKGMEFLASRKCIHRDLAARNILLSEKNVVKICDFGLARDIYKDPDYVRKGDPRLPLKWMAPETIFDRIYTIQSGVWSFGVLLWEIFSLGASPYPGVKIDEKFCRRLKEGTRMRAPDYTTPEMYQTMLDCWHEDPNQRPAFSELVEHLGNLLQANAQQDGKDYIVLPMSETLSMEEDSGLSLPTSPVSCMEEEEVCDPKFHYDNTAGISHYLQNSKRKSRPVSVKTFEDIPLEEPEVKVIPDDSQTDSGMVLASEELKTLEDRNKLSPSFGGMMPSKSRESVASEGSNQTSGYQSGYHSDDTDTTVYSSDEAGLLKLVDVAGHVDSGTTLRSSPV
T1 sequence (P06493 whole entry): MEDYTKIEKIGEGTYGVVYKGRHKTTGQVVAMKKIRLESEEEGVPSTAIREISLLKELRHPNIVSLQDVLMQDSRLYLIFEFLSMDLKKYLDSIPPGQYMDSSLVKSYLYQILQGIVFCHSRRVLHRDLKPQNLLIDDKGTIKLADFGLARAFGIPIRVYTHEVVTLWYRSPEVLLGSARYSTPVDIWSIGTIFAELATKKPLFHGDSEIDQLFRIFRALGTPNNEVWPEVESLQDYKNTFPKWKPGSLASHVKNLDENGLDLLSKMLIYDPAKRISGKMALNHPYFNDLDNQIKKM
T1 sequence (P14635 whole entry partner): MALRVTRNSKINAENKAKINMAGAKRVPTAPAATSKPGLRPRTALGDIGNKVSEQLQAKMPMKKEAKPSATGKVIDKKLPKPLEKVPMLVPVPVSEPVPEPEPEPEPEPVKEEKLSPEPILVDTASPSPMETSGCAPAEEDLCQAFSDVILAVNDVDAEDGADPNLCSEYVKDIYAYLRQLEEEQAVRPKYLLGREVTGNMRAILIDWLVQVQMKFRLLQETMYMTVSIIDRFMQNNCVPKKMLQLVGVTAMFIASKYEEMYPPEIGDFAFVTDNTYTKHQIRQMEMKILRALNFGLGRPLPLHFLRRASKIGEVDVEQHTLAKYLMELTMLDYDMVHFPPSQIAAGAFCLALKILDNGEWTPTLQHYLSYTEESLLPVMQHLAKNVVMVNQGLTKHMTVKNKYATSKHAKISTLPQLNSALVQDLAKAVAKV

| Compound | IC50 [1] [µM] | IC50 [2] [µM] | IC50 [3] [µM] |
| --- | --- | --- | --- |
| N#Cc1cccc(C(=O)Nc2cccc3sc(Nc4ccccc4)nc23)c1 [Cpd 38, 3-cyano-N-(2-phenylamino-benzothiazol-4-yl)-benzamide] | > 100 | 11 | > 100 |
| Cc1ccc(F)c(C(=O)N(C)c2cccc3sc(Nc4ccccc4)nc23)c1F [Cpd 62, 2,6-difluoro-3,N-dimethyl-N-(2-phenylamino-benzothiazol-4-yl)-benzamide] | > 100 | > 100 | > 100 |
| Nc1cccc(C(=O)Nc2cccc3sc(Nc4ccccc4)nc23)c1 [Cpd 20, 3-amino-N-(2-phenylamino-benzothiazol-4-yl)-benzamide] | > 100 | 5.28 | > 100 |
| O=C(Nc1cccc2sc(Nc3ccccc3)nc12)c1ccccc1Br [Cpd 32, 2-bromo-N-(2-phenylamino-benzothiazol-4-yl)-benzamide] | > 100 | 6.27 | > 100 |
| O=C(Cc1cc(F)cc(F)c1)Nc1cccc2sc(Nc3ccccc3)nc12 [Cpd 23, 2-(3,5-difluoro-phenyl)-N-(2-phenylamino-benzothiazol-4-yl)-acetamide] | > 10 | 2.12 | > 100 |
| CC(=O)Nc1cccc2sc(Nc3ccccc3)nc12 [Cpd 16, N-(2-phenylamino-benzothiazol-4-yl)-acetamide] | > 100 | > 10 | > 100 |
| CC(C)(C)NC(=O)Nc1cccc2sc(Nc3ccccc3)nc12 [Cpd 60, 1-tert-butyl-3-(2-phenylamino-benzothiazol-4-yl)-urea] | > 100 | > 100 | > 100 |
| O=C(Nc1cccc2sc(Nc3ccccc3)nc12)c1c(F)cccc1F [Cpd 10, 2,6-difluoro-N-(2-phenylamino-benzothiazol-4-yl)-benzamide] | 3.64 | 0.65 | 5.96 |
| CC(=O)N1CCC(C(=O)Nc2cccc3sc(Nc4ccccc4)nc23)CC1 [Cpd 25, 1-acetyl-piperidine-4-carboxylic acid (2-phenylamino-benzothiazol-4-yl)-amide] | 36.4 | 6.22 | > 100 |
| O=C(Nc1c(Cl)cccc1Cl)Nc1cccc2sc(Nc3ccccc3)nc12 [Cpd 8, 1-(2,6-dichloro-phenyl)-3-(2-phenylamino-benzothiazol-4-yl)-urea] | 17.5 | 3.74 | > 100 |
| O=C(Nc1cccc2sc(Nc3ccccc3)nc12)c1cccnc1 [Cpd 36, N-(2-phenylamino-benzothiazol-4-yl)-nicotinamide] | 42.7 | 4.02 | ≥ 100 |
| O=C(Nc1cccc2sc(Nc3ccccc3)nc12)c1ccccn1 [Cpd 27, pyridine-2-carboxylic acid (2-phenylamino-benzothiazol-4-yl)-amide] | > 100 | 12 | > 100 |
| CC(C)(C)C(=O)Nc1cccc2sc(Nc3ccccc3)nc12 [Cpd 57, 2,2-dimethyl-N-(2-phenylamino-benzothiazol-4-yl)-propionamide] | > 100 | 13.3 | > 100 |
| CCc1ccc(C(=O)Nc2cccc3sc(Nc4ccccc4)nc23)s1 [Cpd 42, 5-ethyl-thiophene-2-carboxylic acid (2-phenylamino-benzothiazol-4-yl)-amide] | > 100 | > 100 | > 100 |
| O=C(Nc1cccc2sc(Nc3ccccc3)nc12)Oc1ccccc1 [Cpd 53, (2-phenylamino-benzothiazol-4-yl)-carbamic acid phenyl ester] | > 100 | > 100 | > 100 |
| Cc1nnsc1C(=O)Nc1cccc2sc(Nc3ccccc3)nc12 [Cpd 56, 4-methyl-[1,2,3]thiadiazole-5-carboxylic acid (2-phenylamino-benzothiazol-4-yl)-amide] | > 100 | > 10 | > 100 |
| O=C(Nc1cccc2sc(Nc3ccccc3)nc12)c1ccccc1 [Cpd 9, N-(2-phenylamino-benzothiazol-4-yl)-benzamide] | > 100 | 17.5 | > 100 |
| O=C(Nc1cccc2sc(Nc3ccccc3)nc12)c1ccc2ccccc2c1 [Cpd 40, naphthalene-2-carboxylic acid (2-phenylamino-benzothiazol-4-yl)-amide] | > 100 | > 100 | > 100 |
| O=C(Cn1cnnn1)Nc1cccc2sc(Nc3ccccc3)nc12 [Cpd 22, N-(2-phenylamino-benzothiazol-4-yl)-2-tetrazol-1-yl-acetamide] | 1.31 | 0.22 | > 100 |
| O=C(Nc1ccccc1F)Nc1cccc2sc(Nc3ccccc3)nc12 [Cpd 7, 1-(2-fluoro-phenyl)-3-(2-phenylamino-benzothiazol-4-yl)-urea] | > 100 | 17.4 | > 100 |
| O=C(Nc1cccc2sc(Nc3ccccc3)nc12)C1CCCCC1 [Cpd 41, cyclohexanecarboxylic acid (2-phenylamino-benzothiazol-4-yl)-amide] | > 100 | 2.05 | ≥ 100 |
| O=C(Nc1cccc2sc(Nc3ccccc3)nc12)c1ccc2c(c1)OCO2 [Cpd 29, benzo[1,3]dioxole-5-carboxylic acid (2-phenylamino-benzothiazol-4-yl)-amide] | > 100 | 11.6 | > 100 |
| O=C(Nc1cccc2sc(Nc3ccccc3)nc12)c1ccc(N2CCOCC2)nc1 [Cpd 21, 6-morpholin-4-yl-N-(2-phenylamino-benzothiazol-4-yl)-nicotinamide] | 14.8 | 1.54 | > 100 |
| O=C(Nc1cccc2sc(Nc3ccccc3)nc12)c1cc2c(Cl)cc(Cl)cc2[nH]1 [Cpd 59, 4,6-dichloro-1H-indole-2-carboxylic acid (2-phenylamino-benzothiazol-4-yl)-amide] | > 100 | > 100 | > 100 |
| COc1cccc(OC)c1C(=O)Nc1cccc2sc(Nc3ccccc3)nc12 [Cpd 46, 2,6-dimethoxy-N-(2-phenylamino-benzothiazol-4-yl)-benzamide] | > 100 | 16.1 | > 100 |
| O=C(Nc1cccc2sc(Nc3ccccc3)nc12)c1cncc(Br)c1 [Cpd 24, 5-bromo-N-(2-phenylamino-benzothiazol-4-yl)-nicotinamide] | 53.3 | 8.28 | > 100 |
| O=C(Nc1cccc2sc(Nc3ccccc3)nc12)c1ccncn1 [Cpd 15, pyrimidine-4-carboxylic acid (2-phenylamino-benzothiazol-4-yl)-amide] | > 100 | 89.1 | > 100 |
